Laboratory results published in patent publication US20220348876A1, “METABOLISM GUIDES DEFINITIVE LINEAGE SPECIFICATION DURING ENDOTHELIAL TO HEMATOPOIETIC TRANSITION” (Amniotics AB, priority 2019, published 2022).

Legend:
Format in all cases: cell-based, human
HE cells [1] = test: confocal imaging: filipin III and histone acetylation staining; settings: day 2, DCA-treated HE cells
Experimental: For TMRE staining, on day 3 of subculture, half of the culture medium was removed and cells were stained with 20 nM TMRE (Thermo Fisher Scientific, T669) by direct addition into the culture medium of a 2× concentrated solution. After a 20-minute incubation at 37° C., wells were carefully washed with PBS and fresh HE medium was added. During acquisition, cells were kept in a humidified incubator at 37° C., 5% CO2, 20% O2. For immunocytochemistry, subculture day 2 HE cells (plated on coverslips) were washed twice in PBS, fixed with 4% PFA for 15 minutes at RT and washed three times with PBS. For filipin staining, fixed cells were incubated with 100 μg/ml filipin III (Sigma-Aldrich, F4767) for 1 hour, washed three times with PBS and rinsed with distilled water before mounting with PVA/DABCO. […] Intensity quantification was performed using the Fiji software as follows. For TMRE, using the brightfield channel, ROIs were selected for 5 spindle-shaped and 5 round cells (randomly chosen) and average intensity for each ROI was calculated in a summatory Z-stack of the TMRE channel. For filipin and acetylation, the summatory Z-stack for the filipin channel was obtained and average intensity calculated. A total of 2-3 independent experiments with 2-3 replicate wells were quantified. […]

EHT cells = test: EHT cell subculture with compounds, flow cytometry; settings: deriving from EHT cells, day 6; UK5099 10 μM
Excerpt: The RB9-CB1 human iPSC line was co-cultured with mouse embryonic fibroblasts (MEFs, Millipore), passaged every six days and processed to form embryoid bodies (EBs) as described previously (Guibentif, C. et al. Cell Reports 19, 10-19 (2017)). The differentiation protocol used in this study was previously described (Ditadi, A. & Sturgeon, C. M. Methods 101, 65-72 (2016)), however, small modifications were made to induce both primitive and definitive hematopoiesis, as indicated below and in FIG. 7, a. Newly-formed EBs were first kept in SFD medium supplemented with 1 ng/ml Activin A (on days 0-2) and 3 μM CHIR99021 (on day 2 only). At day 3, media was switched to “Day 3-SP34” medium supplemented with 1 ng/ml Activin A (on day 3 only) and 3 μM CHIR99021 (on day 3 only) until day 6. On day 6, media was replaced by “Day 6-SP34” medium, until day 8. […]
To measure proliferation, cells were processed with the CellTrace Violet (CTV) kit according to manufacturer's instructions (10-minute incubation) and fluorescence was measured on a BD LSRFortessa. […] Flow cytometry outputs were analyzed on FlowJo Software, with initial gatings on SSC-A/FSC-A, FSC-H/FSC-A, SSC-H/SSC-A and 7-AAD to exclude doublets and dead cells in all experiments.

HE cells [2] = test: globin transcript q-PCR in CFU colonies; settings: normalized to KLF1, relative to non-treated
Experimental: Subcultured HE cells were treated with StemPro Accutase Cell Dissociation Reagent for 2 minutes at 37° C. and dissociated cells were resuspended in 3 ml Methocult H4230 (STEMCELL Technologies, France) (prepared according to manufacturer's instructions, with 20 mL Iscove's Modified Dulbecco's Medium containing 2.5 μg hSCF, 5 μg GM-CSF, 2.5 μg IL-3 and 500 U EPO). Each mixture was divided onto 2 wells of a non-tissue culture treated 6-well plate. Following a 12-day incubation in a humidified incubator at 37° C., 5% CO2, 20% O2, colonies were morphologically distinguished and scored. For globin analysis, colonies in Methocult wells were harvested with PBS, washed thoroughly and frozen in RLT buffer with β-mercaptoethanol. Following RNA extraction and RT (Qiagen), gene expression was assessed with taqman probes by q-PCR. The taqman probes used in this study are HBA1/2 (Hs00361191_g1), HBE1 (Hs00362216_m1), HBG2/1 (Hs00361131_g1) and KLF1 (Hs00610592_m1).

SMILES	increase in cholesterol content (HE cells [1])	decrease in the CD43+CD45+ population (EHT cells)	HBA1-2 (adult globin) expression (HE cells [2])	HBE1 (embryonic) globin transcripts (HE cells [2])	HBG1-2 (fetal) globin transcripts (HE cells [2])
O=C(O)C(Cl)Cl [DCA, dichloroacetate]	8%				
N#C/C(=C\c1cn(-c2ccccc2)c2ccccc12)C(=O)O [UK5099]		2 -fold	did not have an effect	significant increase	significant increase
